Results on 7 compounds are retold here after ChEMBL document CHEMBL1126005 (Bioorg Med Chem Lett, 1991).

The target of assay [1] is Adenosine A2 receptor (Rattus norvegicus, UniProt P29276+P30543).
For assay [2], the target named is T1, Adenosine receptor A1 (Rattus norvegicus, UniProt P25099).
T1 sequence (P25099 whole entry): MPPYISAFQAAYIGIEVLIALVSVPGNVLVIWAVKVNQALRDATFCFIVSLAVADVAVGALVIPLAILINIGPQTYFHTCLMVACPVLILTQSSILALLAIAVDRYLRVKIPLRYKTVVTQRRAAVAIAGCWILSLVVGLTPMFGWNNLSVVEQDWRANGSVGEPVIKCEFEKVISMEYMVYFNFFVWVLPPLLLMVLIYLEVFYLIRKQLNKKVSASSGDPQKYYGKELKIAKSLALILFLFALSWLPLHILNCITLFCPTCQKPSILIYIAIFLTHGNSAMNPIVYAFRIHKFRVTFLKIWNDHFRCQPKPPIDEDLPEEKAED
Description: biochemical.

As for `OC[C@H]1OC(n2cnc3c(NC4CCCCCC4)nc(O)nc32)[C@H](O)[C@@H]1O` (some centres undefined), the figures for the Ki in assay [1] and in assay [2] were 6 µM and 0.07 µM, respectively.
The like results for `OC[C@H]1OC(n2cnc3c(NC4CCCC4)nc(I)nc32)[C@H](O)[C@@H]1O` (some centres undefined) were, in that order, 40 µM and 0.02 µM.
Regarding `OC[C@H]1OC(n2cnc3c(NC4CCCC4)nc(O)nc32)[C@H](O)[C@@H]1O` (some centres undefined), the Ki – broadly, the dissociation constant of the complex between target and ligand, obtained from inhibition or displacement – in assay [1] turned out to be 7.5 µM; in assay [2], 0.019 µM.
Taken in the same sequence, the figures for `OC[C@H]1OC(n2cnc3c(NC4CCC4)nc(O)nc32)[C@H](O)[C@@H]1O` (some centres undefined) were 15 µM and 0.055 µM.
The like results for `OC[C@H]1OC(n2cnc3c(NC4CC5CCC4C5)nc(O)nc32)[C@H](O)[C@@H]1O` (some centres undefined) were, in that order, 80 µM and 0.035 µM.
Consider `OC[C@H]1OC(n2cnc3c(NC4CCCCC4)nc(O)nc32)[C@H](O)[C@@H]1O` (some centres undefined), for which the Ki in assay [1] came to 15 µM; in assay [2], 0.04 µM.
The like results for `OC[C@H]1OC(n2cnc3c(NC4CCC5CCCCC5C4)nc(O)nc32)[C@H](O)[C@@H]1O` (some centres undefined) were, in that order, 140 µM and 30 µM.
